Experimental data published in patent US12215140B2, “Method of stabilizing protein contained in specimen and solution for stabilizing protein contained in specimen” (EIKEN KAGAKU KABUSHIKI KAISHA, priority 2018, dated 2025).

System: hemoglobin-haptoglobin complex
Experiment: Stability of hemoglobin (as hemoglobin-haptoglobin complex) in samples preserved at 37° C. in preservation solution containing 1 unit/L haptoglobin, Hb measured by latex agglutination method (Examples 1 to 7)
Design: species or system human
Conditions: 37° C.
Procedure, shortened: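 Hemoglobin (~300 µg/L) in 0.5% fecal suspension, or without feces, held at 37 °C for 0–21 days in 40 mmol/L HEPES pH 6.8, 0.1% BSA, 0.1% NaN3, 1 unit/L haptoglobin, with 0–100 mmol/L phenylboronic acid ± sugars. Hb quantified by latex agglutination with anti-human Hb rabbit polyclonal; recovery (%) relative to day 0.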

[1] = Feces 1, sugar 50 mmol/L + phenylboronic acid 15 mmol/L, 0 days
[2] = Feces 1, sugar 50 mmol/L + phenylboronic acid 15 mmol/L, 7 days
[3] = Feces 1, sugar 50 mmol/L + phenylboronic acid 15 mmol/L, 14 days
[4] = Feces 1, sugar 50 mmol/L + phenylboronic acid 15 mmol/L, 21 days
[5] = Feces 1, sugar 100 mmol/L + phenylboronic acid 0.5 mmol/L, 0 days
[6] = Feces 1, sugar 100 mmol/L + phenylboronic acid 0.5 mmol/L, 7 days
[7] = Feces 1, sugar 100 mmol/L + phenylboronic acid 0.5 mmol/L, 14 days
[8] = Feces 1, sugar 100 mmol/L + phenylboronic acid 15 mmol/L, 0 days
[9] = Feces 1, sugar 100 mmol/L + phenylboronic acid 15 mmol/L, 0 days (Table 7)
[10] = Feces 1, sugar 100 mmol/L + phenylboronic acid 15 mmol/L, 7 days
[11] = Feces 1, sugar 100 mmol/L + phenylboronic acid 15 mmol/L, 7 days (Table 7)
[12] = Feces 1, sugar 100 mmol/L + phenylboronic acid 15 mmol/L, 14 days
[13] = Feces 1, sugar 100 mmol/L + phenylboronic acid 15 mmol/L, 14 days (Table 7)
[14] = Feces 1, sugar 100 mmol/L + phenylboronic acid 15 mmol/L, 21 days
[15] = Feces 1, sugar 100 mmol/L + phenylboronic acid 50 mmol/L, 0 days
[16] = Feces 1, sugar 100 mmol/L + phenylboronic acid 50 mmol/L, 7 days
[17] = Feces 1, sugar 100 mmol/L + phenylboronic acid 50 mmol/L, 14 days
[18] = Feces 1, sugar 100 mmol/L, no phenylboronic acid, 0 days
[19] = Feces 1, sugar 100 mmol/L, no phenylboronic acid, 7 days
[20] = Feces 1, sugar 100 mmol/L, no phenylboronic acid, 14 days
[21] = Feces 1, sugar 100 mmol/L, no phenylboronic acid, 21 days
[22] = Feces 2, sugar 50 mmol/L + phenylboronic acid 15 mmol/L, 0 days
[23] = Feces 2, sugar 50 mmol/L + phenylboronic acid 15 mmol/L, 7 days
[24] = Feces 2, sugar 50 mmol/L + phenylboronic acid 15 mmol/L, 14 days
[25] = Feces 2, sugar 50 mmol/L + phenylboronic acid 15 mmol/L, 21 days
[26] = Feces 2, sugar 100 mmol/L + phenylboronic acid 0.5 mmol/L, 0 days
[27] = Feces 2, sugar 100 mmol/L + phenylboronic acid 0.5 mmol/L, 7 days
[28] = Feces 2, sugar 100 mmol/L + phenylboronic acid 0.5 mmol/L, 14 days
[29] = Feces 2, sugar 100 mmol/L + phenylboronic acid 15 mmol/L, 0 days
[30] = Feces 2, sugar 100 mmol/L + phenylboronic acid 15 mmol/L, 0 days (Table 7)
[31] = Feces 2, sugar 100 mmol/L + phenylboronic acid 15 mmol/L, 7 days
[32] = Feces 2, sugar 100 mmol/L + phenylboronic acid 15 mmol/L, 7 days (Table 7)
[33] = Feces 2, sugar 100 mmol/L + phenylboronic acid 15 mmol/L, 14 days
[34] = Feces 2, sugar 100 mmol/L + phenylboronic acid 15 mmol/L, 14 days (Table 7)
[35] = Feces 2, sugar 100 mmol/L + phenylboronic acid 15 mmol/L, 21 days
[36] = Feces 2, sugar 100 mmol/L + phenylboronic acid 50 mmol/L, 0 days
[37] = Feces 2, sugar 100 mmol/L + phenylboronic acid 50 mmol/L, 7 days
[38] = Feces 2, sugar 100 mmol/L + phenylboronic acid 50 mmol/L, 14 days
[39] = Feces 2, sugar 100 mmol/L, no phenylboronic acid, 0 days
[40] = Feces 2, sugar 100 mmol/L, no phenylboronic acid, 7 days
[41] = Feces 2, sugar 100 mmol/L, no phenylboronic acid, 14 days
[42] = Feces 2, sugar 100 mmol/L, no phenylboronic acid, 21 days
[43] = Feces 3, sugar 50 mmol/L + phenylboronic acid 15 mmol/L, 0 days

OC[C@@H](O)[C@@H](O)[C@H](O)[C@@H](O)CO [Sorbitol, sorbitol]
Hb concentration [1]: 291 µg/L
Recovery ratio with respect to Hb concentration after 0 days [1]: 100%
Hb concentration [2]: 300 µg/L
Recovery ratio with respect to Hb concentration after 0 days [2]: 103%
Hb concentration [3]: 300 µg/L
Recovery ratio with respect to Hb concentration after 0 days [3]: 103%
Hb concentration [4]: 296 µg/L
Recovery ratio with respect to Hb concentration after 0 days [4]: 102%
Hb concentration [5]: 310 µg/L
Recovery ratio with respect to Hb after 0 days [5]: 100%
Hb concentration [6]: 206 µg/L
Recovery ratio with respect to Hb after 0 days [6]: 66%
Hb concentration [7]: 178 µg/L
Recovery ratio with respect to Hb after 0 days [7]: 57%
Hb concentration [8]: 287 µg/L
Recovery ratio with respect to Hb concentration after 0 days [8]: 100%
Hb concentration [9]: 301 µg/L
Recovery ratio with respect to Hb after 0 days [9]: 100%
Hb concentration [10]: 292 µg/L
Recovery ratio with respect to Hb concentration after 0 days [10]: 102%
Hb concentration [11]: 297 µg/L
Recovery ratio with respect to Hb after 0 days [11]: 99%
Hb concentration [12]: 294 µg/L
Recovery ratio with respect to Hb concentration after 0 days [12]: 102%
Hb concentration [13]: 295 µg/L
Recovery ratio with respect to Hb after 0 days [13]: 98%
Hb concentration [14]: 290 µg/L
Recovery ratio with respect to Hb concentration after 0 days [14]: 101%
Hb concentration [15]: 281 µg/L
Recovery ratio with respect to Hb after 0 days [15]: 100%
Hb concentration [16]: 274 µg/L
Recovery ratio with respect to Hb after 0 days [16]: 98%
Hb concentration [17]: 275 µg/L
Recovery ratio with respect to Hb after 0 days [17]: 98%
Hb concentration [18]: 283 µg/L
Recovery ratio with respect to Hb concentration after 0 days [18]: 100%
Hb concentration [19]: 143 µg/L
Recovery ratio with respect to Hb concentration after 0 days [19]: 51%
Hb concentration [20]: 102 µg/L
Recovery ratio with respect to Hb concentration after 0 days [20]: 36%
Hb concentration [21]: 97 µg/L
Recovery ratio with respect to Hb concentration after 0 days [21]: 34%
Hb concentration [22]: 281 µg/L
Recovery ratio with respect to Hb concentration after 0 days [22]: 100%
Hb concentration [23]: 280 µg/L
Recovery ratio with respect to Hb concentration after 0 days [23]: 100%
Hb concentration [24]: 252 µg/L
Recovery ratio with respect to Hb concentration after 0 days [24]: 90%
Hb concentration [25]: 222 µg/L
Recovery ratio with respect to Hb concentration after 0 days [25]: 79%
Hb concentration [26]: 301 µg/L
Recovery ratio with respect to Hb after 0 days [26]: 100%
Hb concentration [27]: 173 µg/L
Recovery ratio with respect to Hb after 0 days [27]: 57%
Hb concentration [28]: 154 µg/L
Recovery ratio with respect to Hb after 0 days [28]: 51%
Hb concentration [29]: 274 µg/L
Recovery ratio with respect to Hb concentration after 0 days [29]: 100%
Hb concentration [30]: 299 µg/L
Recovery ratio with respect to Hb after 0 days [30]: 100%
Hb concentration [31]: 276 µg/L
Recovery ratio with respect to Hb concentration after 0 days [31]: 101%
Hb concentration [32]: 300 µg/L
Recovery ratio with respect to Hb after 0 days [32]: 100%
Hb concentration [33]: 246 µg/L
Recovery ratio with respect to Hb concentration after 0 days [33]: 90%
Hb concentration [34]: 298 µg/L
Recovery ratio with respect to Hb after 0 days [34]: 100%
Hb concentration [35]: 219 µg/L
Recovery ratio with respect to Hb concentration after 0 days [35]: 80%
Hb concentration [36]: 275 µg/L
Recovery ratio with respect to Hb after 0 days [36]: 100%
Hb concentration [37]: 279 µg/L
Recovery ratio with respect to Hb after 0 days [37]: 101%
Hb concentration [38]: 284 µg/L
Recovery ratio with respect to Hb after 0 days [38]: 103%
Hb concentration [39]: 277 µg/L
Recovery ratio with respect to Hb concentration after 0 days [39]: 100%
Hb concentration [40]: 113 µg/L
Recovery ratio with respect to Hb concentration after 0 days [40]: 41%
Hb concentration [41]: 77 µg/L
Recovery ratio with respect to Hb concentration after 0 days [41]: 28%
Hb concentration [42]: 51 µg/L
Recovery ratio with respect to Hb concentration after 0 days [42]: 18%
Hb concentration [43]: 283 µg/L
Recovery ratio with respect to Hb concentration after 0 days [43]: 100%
